In brackets after ≈: the same amount, converted by molar mass. Read-outs that look alike come from different tables or passages of the source.
Legend:
[1] = set-up: method as in PMID 37077385; conditions: Kinetic solubility; ref [6]; cited from earlier work
[2] = system: DiscoverX KinomeSCAN assay panel of >400 human kinases; conditions: cited from earlier work; for Kinases Inhibited: Number of kinases showing 90% inhibition at 1 µM in DiscoverX KINOMEscan, ref [6]
[3] = system: Mouse Hepatitis Virus (MHV); assay: microbe, parasite or virus in culture; format: cell-based; conditions: Murine coronavirus, read-out: MHV IC50
Protocol: DBT cells were plated in 96-well plates to be 80% confluent at the start of the assay. Test compounds were diluted to 30 µM in DMEM. […] Molnupiravir (10 µM) was included as a positive control. […] After 1 h, MHV-NLuc was added at an MOI of 0.1 in 50 μL DMEM so that the final concentration of the first dilution of compound was 30 μM (T = 0). After 10 h, the media was aspirated, and the cells were washed with PBS and lysed with passive lysis buffer (Promega) for 20 min at room temperature. Relative light units (RLUs) were measured using a luminometer (Promega; GloMax). Triplicate data were analyzed in GraphPad Prism version 9.5.1 to generate IC50 values (Figure S2).

CSNK2A (CSNK2A2-NLuc) = biological target: T1, CSNK2A (CSNK2A2-NLuc) (Homo sapiens, UniProt P19784); assay: In-cell CSNK2A target engagement by NanoBRET assay; format: cell-based; conditions: for IC50: In-cell target engagement by NanoBRET assay, HEK293 cells
T1 construct: expressed in transfected cells; host or cells: HEK293
Protocol: A transfection complex of DNA at 10 µg/mL was created, consisting of 9 µg/mL of carrier DNA (Promega, Madison, WI, USA) and 1 µg/mL of CSNK2A2-NLuc fusion DNA in Opti-MEM without serum (Gibco). FuGENE HD (Promega) was added at 30 µL/mL to form a lipid/DNA complex. The solution was then mixed and incubated at room temperature for 20 min. […] The following day, the media was removed via aspiration and replaced with 85 μL of Opti-MEM without phenol red. A total of 5 μL per well of 20×-NanoBRET Tracer K10 (Promega) at 5 μM in Tracer Dilution Buffer (Promega N291B) was added to all wells, except the “no tracer” control wells. Test compounds (10 mM in DMSO) were diluted 100× in Opti-MEM media to prepare stock solutions and evaluated at eleven concentrations. A total of 10 μL per well of the 10-fold test compound stock solutions (final assay concentration of 0.1% DMSO) was added. […] 96-well plates containing cells with NanoBRET Tracer K10 and test compounds (100 µL total volume per well) were equilibrated (37 °C/5% CO2) for 2 h. The plates were cooled to room temperature for 15 min. […] A total of 50 μL of the 3× substrate/extracellular NL inhibitor were added to each well. The plates were read within 30 min on a GloMax Discover luminometer (Promega) equipped with 450 nm BP filter (donor) and 600 nm LP filter (acceptor) using 0.3 s integration time. Raw milliBRET (mBRET) values were obtained by dividing the acceptor emission values (600 nm) by the donor emission values (450 nm) and multiplying by 1000. […] The data were first normalized and then fit using Sigmoidal, 4PL binding curve in GraphPad Prism version 9.5.1 to determine IC50 values (Figure S1).

[4] = Kinetic solubility in PBS pH 7.4; format: physicochemical; conditions: phosphate-buffered saline, pH 7.4, aqueous buffer, kinetic from dmso stock, PBS pH 7.4, 24 h
Protocol: Kinetic solubility assay was conducted using 10 mM DMSO stocks of compounds in phosphate-buffered saline solution (PBS) at pH 7.4 by Analiza, Inc., Cleveland, OH, USA. […] The calculated values were corrected for the background nitrogen in the media and DMSO.

[5] = Inhibition of MHV-NLuc in DBT cells

T1 sequence (P19784 whole entry): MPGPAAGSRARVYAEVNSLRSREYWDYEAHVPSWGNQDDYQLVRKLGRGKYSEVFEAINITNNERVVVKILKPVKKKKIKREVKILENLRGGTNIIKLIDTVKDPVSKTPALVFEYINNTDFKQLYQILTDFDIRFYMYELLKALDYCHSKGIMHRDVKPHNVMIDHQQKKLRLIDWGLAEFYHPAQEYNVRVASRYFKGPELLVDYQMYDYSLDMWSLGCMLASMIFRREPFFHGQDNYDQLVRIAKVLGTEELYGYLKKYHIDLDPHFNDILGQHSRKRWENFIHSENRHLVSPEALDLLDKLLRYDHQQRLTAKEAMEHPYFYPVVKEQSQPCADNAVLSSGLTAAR

Row | Structure (SMILES) | Aqueous Solubility [1] [µM] | Kinases Inhibited [2] | IC50 [3, 5] [µM] | IC50 (CSNK2A (CSNK2A2-NLuc)) [µM] | solubility at 24 h [4] [µM] | melting point [°C] | other results
1 | O=C(O)c1ccc2c(c1)nc(Nc1ccc3ccccc3c1)c1ncncc12 [Analog-11] | 54 | 10/403 |  |  |  |  | 
2 | O=C(O)c1ccc2c(c1)nc(NCC1CCCCC1)c1ncncc12 [Compound 4t, 5-((cyclohexylmethyl)amino)pyrimido[4,5-c]quinoline-8-carboxylic acid] |  |  | 13 | 0.14 | 180 (≈ 60.6 µg/mL) | 281 to 283 | Designation (CSNK2A (CSNK2A2-NLuc); active / inactive analogs with 10-fold differences in IC50): Active
3 | O=C(O)c1ccc2c(c1)nc(NCC1CCCCCC1)c1ncncc12 [Compound 4u, 5-((cycloheptylmethyl)amino)pyrimido[4,5-c]quinoline-8-carboxylic acid] |  |  | 18 | 0.2 | 150 (≈ 52.6 µg/mL) | 280 to 283 | 
4 | O=C(O)c1ccc2c(c1)nc(NCC13CCC(CC1)C3)c1ncncc12 [Compound 4w, 5-((bicyclo[2.2.1]heptan-1-ylmethyl)amino)pyrimido[4,5-c]quinoline-8-carboxylic acid] |  |  | 17 | 0.17 | 190 (≈ 66.2 µg/mL) | 291 to 292 | 
5 | O=C(O)c1ccc2c(c1)nc(NCC13CC4CC(CC(C4)C1)C3)c1ncncc12 [Compound 4x, 5-((((3r,5r,7r)-adamantan-1-yl)methyl)amino)pyrimido[4,5-c]quinoline-8-carboxylic acid] |  |  | > 30 | 0.14 | ~10 (≈ 3.88 µg/mL) | 292 to 296 | 
6 | CCC(=O)Nc1cc(Nc2cc(NC3CC3)n3ncc(C#N)c3n2)ccc1C [SGC-CK2-1] |  | 3/403 |  |  |  |  | inhibition of CSNK2A1, CSNK2A2, and STK17B ([2]; at 1 µM, only these kinases of the panel, ref [3]): 90%
7 | O=C(O)c1ccc2c(c1)nc(NCc1ccccc1)c1ncncc12 [SGC-CK2-2, reference compound] | 210 |  |  |  |  |  | IC50 [3]: 15 µM
8 | O=C(O)c1ccc2c(c1)nc(Nc1cccc(Cl)c1)c1ccncc12 [silmitasertib, 5-(3-chlorophenylamino)benzo[c][2,6]naphthyridine-8-carboxylic acid] | 280 | 28/403 |  |  |  |  | 

— paper PMC10976173, “Synthesis of 5-Benzylamino and 5-Alkylamino-Substituted Pyrimido[4,5-c]quinoline Derivatives as CSNK2A Inhibitors with Antiviral Activity” (Pharmaceuticals, 2024)
